The IC50 is the midpoint of a concentration-inhibition curve.

18 compounds from patent publication US20240262842A1, “SMALL MOLECULE INHIBITORS OF KRAS G12C MUTANT” (Merck Sharp & Dohme LLC, priority 2021, published 2024) can be followed below.

In the first test the target is biotinylated KRAS G12C protein (GMP-PNP loaded) and GST-tagged Ras binding domain of c-RAF (Homo sapiens, UniProt P01116, C118S/C51S/C80L/G12C). The test can be described thus: RAS:RAF-RBD binding assay (TR-FRET). The note with it: 30-minute incubation of compound with KRAS G12C before RAF-RBD; Table 4; read-out: IC50.
Sequence of biotinylated KRAS G12C protein (GMP-PNP loaded) and GST-tagged Ras binding domain of c-RAF (P01116 with tags, fused parts or gaps isoform P01116-2 G12C/C51S/C80L/C118S): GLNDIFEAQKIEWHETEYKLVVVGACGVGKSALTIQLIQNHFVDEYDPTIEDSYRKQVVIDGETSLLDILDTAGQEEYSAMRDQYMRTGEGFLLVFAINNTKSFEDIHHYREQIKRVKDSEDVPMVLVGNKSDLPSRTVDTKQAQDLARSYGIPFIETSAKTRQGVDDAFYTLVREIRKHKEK
For the compound `Cc1nc2c3c(c(C(F)(F)F)cc2n1C)-c1cccn2c(C(=O)c4cc(F)c(NC(=O)/C=C/CNC5(C)COC5)c(F)c4)cc(c12)CC(C)O3` (single isomer, unassigned) [Example 273, mono((E)-2-(3,5-difluoro-4-(4-((3-methyloxetan-3-yl)ammonio)but-2-en-amido)benzoyl)-9,10,13-trimethyl-7-(trifluorometh-yl)-13,14-dihydro-9H-imidazo[4″,5″:5′,6′]benzo-[1′,2′:2,3]oxocino[4,5,6-hi]indolizin-11-ium) mono(2,2,2-trifluoro-acetate)], the IC50 turned out to be 30.1 nM. The same measure, in the same setting: in the case of `Cc1nc2c3c(c(C(F)(F)F)cc2n1C)-c1cccn2c(C(=O)c4cc(F)c(NC(=O)/C=C/CN5CC6C(CO)C6C5)c(F)c4)cc(c12)CCO3` (single isomer, unassigned) [Example 278, (E)-3-(4-((4-(9,10-dimeth-yl-7-(trifluoromethyl)-13,14-dihydro-9H-imidazo-[4″,5″:5′,6′]-benzo[1′,2′:2,3]oxocino-[4,5,6-hi]indolizine-2-carbonyl)-2,6-difluoro-phenyl)amino)-4-oxobut-2-en-1-yl)-6-(hydroxy-methyl)-3-azabicyclo-[3.1.0]hexan-3-ium 2,2,2-trifluoroacetate] it was 44.3 nM; in that of `CN1CCc2cc(C(=O)c3cc(F)c(NC(=O)/C=C/CNC4(C)COC4)c(F)c3)n3cccc(c23)-c2c(C(F)(F)F)cc3nn(C)cc3c21` (single isomer, unassigned) [Example 282, (E)-N-(4-((4-(10,12-dimethyl-7-(trifluorometh-yl)-10,12,13,14-tetrahydro-indolizino[8′,1′:4,5,6]-azocino[2,3-e]indazole-2-carbonyl)-2,6-difluoro-phenyl)amino)-4-oxobut-2-en-1-yl)-3-methyloxetan-3-aminium 2,2,2-trifluoro-acetate], 57.6 nM. Still for that read-out and setting: in the case of `Cc1nc2c3c(c(C(F)(F)F)cc2n1C)-c1cccn2c(C(=O)c4cc(F)c(NC(=O)/C=C/CN5CC6(CCOC6)C5)c(F)c4)cc(c12)CCO3` (single isomer, unassigned) [Example 284] it was 40.4 nM; in that of `COCc1nc2c3c(c(OC)cc2n1C)-c1cccn2c(C(=O)c4cc(F)c(NC(=O)/C=C/CN5CC6(CCCOC6)C5)c(F)c4)cc(c12)CCN3C` (single isomer, unassigned) [Example 292, mono((E)-2-(4-((2,6-difluoro-4-(7-methoxy-10-(methoxymethyl)-9,12-dimethyl-9,12,13,14-tetra-hydroimidazo[4″,5″: 5′,6′]benzo[1′,2′:2,3]azo-cino[4,5,6-hi]indolizin-11-ium-2-carbonyl)phenyl)-amino)-4-oxobut-2-en-1-yl)-6-oxa-2-azaspiro[3.5]-nonan-2-ium) mono(2,2,2-trifluoroacetate)], 84.9 nM. On the same count and under the same terms, the value for `Cc1nc2c3c(c(C(F)(F)F)cc2n1C)-c1cccn2c(C(=O)c4cc(F)c(NC(=O)/C=C/CN5CCC5CC(C)(C)O)c(F)c4)cc(c12)CCN3C` (single isomer, unassigned) [Example 298, (E)-1-(4-((2,6-difluoro-4-(9,10,12-trimethyl-7-(trifluoromethyl)-9,12,13,14-tetrahydro-imidazo[4″,5″:5′,6′]benzo-[1′,2′:2,3]azocino[4,5,6-hi]indolizine-2-carbonyl)-phenyl)amino)-4-oxobut-2-en-1-yl)-2-(2-hydroxy-2-methylpropyl)azetidin-1-ium 2,2,2-trifluoro-acetate] was 41.6 nM; that for `Cc1nc2c3c(c(C(F)(F)F)cc2n1C)-c1cccn2c(C(=O)c4cc(F)c(NC(=O)/C=C/CN5CCC5CC(C)(C)O)c(F)c4)cc(c12)CCN3C` (single isomer, unassigned) [Example 299, (E)-1-(4-((2,6-difluoro-4-(9,10,12-trimethyl-7-(trifluoromethyl)-9,12,13,14-tetrahydro-imidazo[4″,5″:5′,6′]benzo-[1′,2′:2,3]azocino[4,5,6-hi]indolizine-2-carbonyl)-phenyl)amino)-4-oxobut-2-en-1-yl)-2-(2-hydroxy-2-methylpropyl)azetidin-1-ium 2,2,2-trifluoroacetate] was 52.5 nM; that for `Cc1nc2c3c(c(C(F)(F)F)cc2n1C)-c1cccn2c(C(=O)c4cc(F)c(NC(=O)/C=C/CN5CC6(CCCOC6)C5)c(F)c4)cc(c12)CCO3` [Example 253, mono((E)-2-(4-(4-(6-oxa-2-azaspiro[3.5]nonan-2-ium-2-yl)but-2-enamido)-3,5-difluorobenzoyl)-9,10-dimethyl-7-(trifluorometh-yl)-13,14-dihydro-9H-imidazo[4″,5″:5′,6′]benzo-[1′,2′:2,3]oxocino[4,5,6-hi]indolizin-11-ium) mono-(2,2,2-trifluoroacetate)] was 24.8 nM. In the case of `Cc1nc2c3c(c(C(F)(F)F)cc2n1C)-c1cccn2c(C(=O)c4cc(F)c(NC(=O)C=CCN5CCC5CC(=O)N(C)C)c(F)c4)cc(c12)CCO3` [Example 254, mono(2-(4-((E)-4-((2S)-2-(2-(dimethylamino)-2-oxoethyl)azetidin-1-ium-1-yl)but-2-enamido)-3,5-difluorobenzoyl)-9,10-dimethyl-7-(trifluorometh-yl)-13,14-dihydro-9H-imidazo[4″,5″:5′,6′]benzo-[1′,2′:2,3]oxocino[4,5,6-hi]indolizin-11-ium) mono(2,2,2-trifluoro-acetate)], the IC50 was found to be 20.9 nM. Still for that read-out and setting: the value for `Cc1nc2c3c(c(C(F)(F)F)cc2n1C)-c1cccn2c(C(=O)c4cc(F)c(NC(=O)C=CCN5CCCC5C5(O)CC5)c(F)c4)cc(c12)CCO3` (stereo not drawn) [Example 255, mono(2-(3,5-difluoro-4-((E)-4-((28)-2-(1-hydroxy-cyclopropyl)pyrrolidin-1-ium-1-yl)but-2-enamido)-benzoyl)-9,10-dimethyl-7-(trifluoromethyl)-13,14-dihydro-9H-imidazo-[4″,5″:5′,6′]benzo[1′,2′: 2,3]oxocino[4,5,6-hi]-indolizin-11-ium) mono-(2,2,2-trifluoroacetate)] was 11.7 nM. `Cc1nc2c3c(c(C(F)(F)F)cc2n1C)-c1cccn2c(C(=O)c4cc(F)c(NC(=O)/C=C/CN5CCC[C@H]5CO)c(F)c4)cc(c12)CCO3` [Example 256, mono(2-(3,5~difluoro-4-((E)-4-((2S)-2-(hydroxy-methyl)pyrrolidin-1-ium-1-yl)but-2-enamido)ben-zoyl)-9,10-dimethyl-7-(trifluoromethyl)-13,14-dihydro-9H-imidazo-[4,5″:5′,6′]benzo[1′,2′: 2,3]oxocino[4,5,6-hi]-indolizin-11-ium) mono-(2,2,2-trifluoroacetate)]: the half-inhibitory concentration (IC50) was determined as 4.7 nM. On the same count and under the same terms, the value for `Cc1nc2c3c(c(C(F)(F)F)cc2n1C)-c1cccn2c(C(=O)c4cc(F)c(NC(=O)C=CCN5CC6CC5CO6)c(F)c4)cc(c12)CCO3` [Example 257, mono(2-(4-((E)-4-((1S,4S)-2-oxa-5-aza-bicyclo-[2.2.1]heptan-5-ium-5-yl)but-2-enamido)-3,5-difluorobenzoyl)-9,10-dimethyl-7-(trifluorometh-yl)-13,14-dihydro-9H-imidazo[4″,5″:5′,6′]benzo-[1′,2′:2,3]oxocino[4,5,6-hi]indolizin-11-ium) mono(2,2,2-trifluoro-acetate)] was 9.69 nM; that for `Cc1nc2c3c(c(C(F)(F)F)cc2n1C)-c1cccn2c(C(=O)c4cc(F)c(NC(=O)/C=C/[C@@H]5C[C@@H](F)CN5)c(F)c4)cc(c12)CCO3` [Example 260, (2S,4R)-2-((E)-3-((4-(9,10-dimethyl-7-(tri-fluoromethyl)-13,14-dihydro-9H-imidazo-[4″,5″:5′,6′]benzo[1′,2′: 2,3]oxocino[4,5,6-hi]-indolizine-2-carbonyl)-2,6-difluorophenyl)-amino)-3-oxoprop-1-en-1-yl)-4-fluoropyrrolidin-1-ium 2,2,2-trifluoro-acetate] was 11.7 nM. Same read-out and setting: in the case of `Cc1nc2c3c(c(C(F)(F)F)cc2n1C)-c1cccn2c(C(=O)c4cc(F)c(NC(=O)/C=C/CN[C@@H]5CCCC[C@@H]5O)c(F)c4)cc(c12)CCO3` [Example 264] it was 7.34 nM. Take `Cc1nc2c3c(c(C(F)(F)F)cc2n1C)-c1cccn2c(C(=O)c4cc(F)c(NC(=O)/C=C/CN[C@H]5CCCC[C@H]5O)c(F)c4)cc(c12)CCO3` [Example 265]: the IC50 turned out to be 12.3 nM. On to `CO[C@@H]1CCCC[C@@H]1NC/C=C/C(=O)Nc1c(F)cc(C(=O)c2cc3c4c(cccn24)-c2c(C(F)(F)F)cc4c(nc(C)n4C)c2OCC3)cc1F` [Example 266, (E)-N-(4-(9,10-dimethyl-7-(trifluoromethyl)-13,14-dihydro-9H-imidazo-[4″,5″:5′,6′]benzo[1′,2′: 2,3]oxocino[4,5,6-hi]-indolizine-2-carbonyl)-2,6-difluorophenyl)-4-(((1S,2R)-2-methoxy-cyclohexyl)amino)but-2-enamide], for which the IC50 worked out at 16.1 nM. Still for that read-out and setting: in the case of `Cc1nc2c3c(c(C(F)(F)F)cc2n1C)-c1cccn2c(C(=O)c4cc(F)c(NC(=O)/C=C/CNC5(C)CCOCC5)c(F)c4)cc(c12)CCO3` [Example 267, mono((E)-2-(3,5-difluoro-4-(4-((4-methyltetrahydro-2H-pyran-4-yl)ammonio)-but-2-enamido)benzoyl)-9,10-dimethyl-7-(trifluoro-methyl)-13,14-dihydro-9H-imidazo[4″,5″:5′,6′]-benzo[1′,2′:2,3]oxocino-[4,5,6-hi]indolizin-11-ium)mono(2,2,2-trifluoro-acetate)] it was 3.69 nM.

Staying with this test, now noted: IC50, 30-minute incubation of compound with KRAS G12C before RAF-RBD; Table 4.
`CO[C@H]1CC[C@H](NC/C=C/C(=O)Nc2ccc(C(=O)c3cn4c5c(cccc35)-c3c(C(F)(F)F)cc5c(nc(C)n5C)c3OCC4)cc2)CC1` [Example 263, mono(2-(4-((E)-4-(((1r, 4r)-4-methoxycyclohexyl)-ammonio)but-2-enamido)-benzoyl)-8,9-dimethyl-6-(trifluoromethyl)-12,13-dihydro-8H-imidazo-[4″,5″:3′,4′]benzo[1′,2′: 7,8][1,4]oxazocino[6,5,4-hi]indol-10-ium) mono-(2,2,2-trifluoroacetate)] registered an IC50 of 9.25 nM.
